In US20190010139A1 (priority 2015, published 2019) one finds EC50 data, which are given here for 22 compounds.

Bounds are passed on as bounds.

The first assay concerns NL-RLuc virus. The assay can be described thus: Inhibition of HIV replication (NL-RLuc luciferase reporter virus in MT-2 cells). The following applies: Human immunodeficiency virus 1, MT2, 120 h, read-out: Activity. The class given is cell-based. From the text:
Inhibition of HIV Replication:
A recombinant NL-RLuc proviral clone was constructed in which a section of the nef gene from NL4-3 was replaced with the Renilla Luciferase gene. This virus is fully infectious and can undergo multiple cycles of replication in cell culture. In addition, the luciferous reporter provides a simple and easy method for quantitating the extent of virus growth and consequently, the antiviral activity of test compounds. The plasmid pNLRLuc contains the proviral NL-Rluc DNA cloned into pUC 18 at the PvuII site. The NL-RLuc virus was prepared by transfection of 293T cells with the plasmid pNLRLuc. Transfections were performed using the LipofectAMINE PLUS kit from Invitrogen (Carlsbad, Calif.) according to the manufacturer and the virus generated was titered in MT-2 cells. For susceptibility analyses, the titrated virus was used to infect MT-2 cells in the presence of compound, and after 5 days of incubation, cells were processed and quantitated for virus growth by the amount of expressed luciferase. Assay media was RPMI 1640 supplemented with 10% heat inactivated fetal bovine serum (FBS), 100 units/ml penicillin G/100 units/ml streptomycin, 10 mM HEPES buffer pH 7.55 and 2 mM L-glutamine. The results from at least 2 experiments were used to calculate the EC50 values. Luciferase was quantitated using the Dual Luciferase kit from Promega (Madison, Wis.). Susceptibility of viruses to compounds was determined by incubation in the presence of serial dilutions of the compound. The 50% effective concentration (EC50) was calculated by using the exponential form of the median effect equation where (Fa)=1/[1+(ED50/drug conc.)^m](Johnson V A, Byington R T. Infectivity Assay. In Techniques in HIV Research. ed. Aldovini A, Walker B D. 71-76. New York: Stockton Press.1990). Activity equal to A refers to a compound having an EC50≤100 nM, while B and C denote compounds having an EC50 between 100 nM and 1 uM (B) or >1 uM (C).
As to `Cc1nc(C)c([C@H](OC(C)(C)C)C(=O)O)c(N2CCC3(CCCC3)CC2)c1-c1ccc(OCCc2ccc(F)cc2)cc1` [Example 20, (S)-2-(tert-Butoxy)-2-(5-(4-(4-fluorophenethoxy)phenyl)-2,6-dimethyl-4-(8-azaspiro[4.5]decan-8-yl)pyridin-3-yl)acetic acid], the EC50 is less than 0.1 µM.
Consider `Cc1nc(C)c([C@H](OC(C)(C)C)C(=O)O)c(N2CCC3(CCCC3)CC2)c1-c1ccc(C(=O)NCc2ccccc2)cc1` [Example 21, (S)-2-(5-(4-(Benzylcarbamoyl)phenyl)-2,6-dimethyl-4-(8-azaspiro[4.5]decan-8-yl)pyridin-3-yl)-2-(tert-butoxy)acetic acid], for which the EC50 is less than 0.1 µM.
Same read-out and setting: then `Cc1nc(C)c([C@H](OC(C)(C)C)C(=O)O)c(N2CCC3(CCCC3)CC2)c1-c1ccc(OCC(C)(C)c2ccc(F)cc2)cc1` [Example 22, (S)-2-(tert-Butoxy)-2-(5-(4-(2-(4-fluorophenyl)-2-methylpropoxy)phenyl)-2,6-dimethyl-4-(8-azaspiro[4.5]decan-8-yl)pyridin-3-yl)acetic acid], with less than 0.1 µM; and `Cc1nc(C)c([C@H](OC(C)(C)C)C(=O)O)c(N2CCC3(CCCC3)CC2)c1-c1ccc(C(=O)NCc2ccccc2)c(F)c1` [Example 24, (S)-2-(5-(4-(Benzylcarbamoyl)-3-fluorophenyl)-2,6-dimethyl-4-(8-azaspiro[4.5]decan-8-yl)pyridin-3-yl)-2-(tert-butoxy)acetic acid], with less than 0.1 µM; and `COc1cc(-c2c(C)nc(C)c([C@H](OC(C)(C)C)C(=O)O)c2N2CCC3(CCCC3)CC2)ccc1C(=O)NCc1ccccc1` [Example 25, (S)-2-(5-(4-(Benzylcarbamoyl)-3-methoxyphenyl)-2,6-dimethyl-4-(8-azaspiro[4.5]decan-8-yl)pyridin-3-yl)-2-(tert-butoxy)acetic acid], with less than 0.1 µM.
On the same count and under the same terms, then `Cc1nc(C)c([C@H](OC(C)(C)C)C(=O)O)c(N2CCC3(CCCC3)CC2)c1-c1ccc2c(c1)CCN(Cc1ccccc1F)C2` [Example 26, (S)-2-(tert-Butoxy)-2-(5-(2-(2-fluorobenzyl)-1,2,3,4-tetrahydroisoquinolin-6-yl)-2,6-dimethyl-4-(8-azaspiro[4.5]decan-8-yl)pyridin-3-yl)acetic acid], with less than 0.1 µM; and `Cc1nc(C)c([C@H](OC(C)(C)C)C(=O)O)c(N2CCC3(CCC3)CC2)c1-c1ccc(OCCc2ccc(F)cc2)cc1` [Example 27, (S)-2-(tert-Butoxy)-2-(5-(4-(4-fluorophenethoxy)phenyl)-2,6-dimethyl-4-(7-azaspiro[3.5]nonan-7-yl)pyridin-3-yl)acetic acid], with less than 0.1 µM.
Same read-out and setting: for `Cc1nc(C)c([C@H](OC(C)(C)C)C(=O)O)c(N2CCC3(CCC3)CC2)c1-c1ccc(OCC(C)(C)c2ccc(F)cc2)cc1` [Example 28, (S)-2-(tert-butoxy)-2-(5-(4-(2-(4-fluorophenyl)-2-methylpropoxy)phenyl)-2,6-dimethyl-4-(7-azaspiro[3.5]nonan-7-yl)pyridin-3-yl)acetic acid] the value was less than 0.1 µM; for `Cc1nc(C)c([C@H](OC(C)(C)C)C(=O)O)c(N2CCC3(CCC3)CC2)c1-c1ccc(C(=O)NCc2ccccc2)cc1` [Example 29, (S)-2-(5-(4-(Benzylcarbamoyl)phenyl)-2,6-dimethyl-4-(7-azaspiro[3.5]nonan-7-yl)pyridin-3-yl)-2-(tert-butoxy)acetic acid], less than 0.1 µM.
Turning to `Cc1nc(C)c([C@H](OC(C)(C)C)C(=O)O)c(N2CCC3(CCC3)CC2)c1-c1ccc(C(=O)NCc2ccccc2)c(F)c1` [Example 31, (S)-2-(5-(4-(Benzylcarbamoyl)-3-fluorophenyl)-2,6-dimethyl-4-(7-azaspiro[3.5]nonan-7-yl)pyridin-3-yl)-2-(tert-butoxy)acetic acid], the EC50 is less than 0.1 µM.
Consider `COc1cc(-c2c(C)nc(C)c([C@H](OC(C)(C)C)C(=O)O)c2N2CCC3(CCC3)CC2)ccc1C(=O)NCc1ccccc1` [Example 32, (S)-2-(5-(4-(Benzylcarbamoyl)-3-methoxyphenyl)-2,6-dimethyl-4-(7-azaspiro[3.5]nonan-7-yl)pyridin-3-yl)-2-(tert-butoxy)acetic acid], for which the EC50 was less than 0.1 µM.
With `Cc1nc(C)c([C@H](OC(C)(C)C)C(=O)O)c(N2CCC3(CCC3)CC2)c1-c1ccc2c(c1)CCN(Cc1ccccc1F)C2` [Example 33, (S)-2-(tert-Butoxy)-2-(5-(2-(2-fluorobenzyl)-1,2,3,4-tetrahydroisoquinolin-6-yl)-2,6-dimethyl-4-(7-azaspiro[3.5]nonan-7-yl)pyridin-3-yl)acetic acid], the EC50 was less than 0.1 µM.
`Cc1cccc(F)c1CN1CCc2cc(-c3c(C)nc(C)c([C@H](OC(C)(C)C)C(=O)O)c3N3CCC4(CCC4)CC3)ccc2C1` [Example 34, (S)-2-(tert-Butoxy)-2-(5-(2-(2-fluoro-6-methylbenzyl)-1,2,3,4-tetrahydroisoquinolin-6-yl)-2,6-dimethyl-4-(7-azaspiro[3.5]nonan-7-yl)pyridin-3-yl)acetic acid]: the EC50 is less than 0.1 µM.
In the case of `Cc1cc(F)ccc1CN1CCc2cc(-c3c(C)nc(C)c([C@H](OC(C)(C)C)C(=O)O)c3N3CCC4(CCC4)CC3)ccc2C1` [Example 35, (S)-2-(tert-Butoxy)-2-(5-(2-(4-fluoro-2-methylbenzyl)-1,2,3,4-tetrahydroisoquinolin-6-yl)-2,6-dimethyl-4-(7-azaspiro[3.5]nonan-7-yl)pyridin-3-yl)acetic acid], the EC50 is less than 0.1 µM.
With `Cc1ccc(CN2CCc3cc(-c4c(C)nc(C)c([C@H](OC(C)(C)C)C(=O)O)c4N4CCC5(CCC5)CC4)ccc3C2)c(F)c1` [Example 37, (S)-2-(tert-Butoxy)-2-(5-(2-(2-fluoro-4-methylbenzyl)-1,2,3,4-tetrahydroisoquinolin-6-yl)-2,6-dimethyl-4-(7-azaspiro[3.5]nonan-7-yl)pyridin-3-yl)acetic acid], the EC50 was less than 0.1 µM.
On to `Cc1nc(CO)c(-c2ccc(OCCc3ccc(F)cc3)cc2)c(N2CCC3(CCC3)CC2)c1[C@H](OC(C)(C)C)C(=O)O` [Example 38, (S)-2-(tert-Butoxy)-2-(5-(4-(4-fluorophenethoxy)phenyl)-6-(hydroxymethyl)-2-methyl-4-(7-azaspiro[3.5]nonan-7-yl)pyridin-3-yl)acetic acid], for which the EC50 is less than 0.1 µM.
With `Cc1nc(CO)c([C@H](OC(C)(C)C)C(=O)O)c(N2CCC3(CCC3)CC2)c1-c1ccc(OCCc2ccc(F)cc2)cc1` [Example 39, (S)-2-(tert-Butoxy)-2-(5-(4-(4-fluorophenethoxy)phenyl)-2-(hydroxymethyl)-6-methyl-4-(7-azaspiro[3.5]nonan-7-yl)pyridin-3-yl)acetic acid], the EC50 was less than 0.1 µM.
Take `Cc1nc(CF)c(-c2ccc(OCCc3ccc(F)cc3)cc2)c(N2CCC3(CCC3)CC2)c1[C@H](OC(C)(C)C)C(=O)O` [Example 40, (S)-2-(tert-Butoxy)-2-(6-(fluoromethyl)-5-(4-(4-fluorophenethoxy)phenyl)-2-methyl-4-(7-azaspiro[3.5]nonan-7-yl)pyridin-3-yl)acetic acid]: the EC50 is less than 0.1 µM.
Consider `CCOCc1nc(C)c([C@H](OC(C)(C)C)C(=O)O)c(N2CCC3(CCC3)CC2)c1-c1ccc(OCCc2ccc(F)cc2)cc1` [Example 41, (S)-2-(tert-Butoxy)-2-(6-(ethoxymethyl)-5-(4-(4-fluorophenethoxy)phenyl)-2-methyl-4-(7-azaspiro[3.5]nonan-7-yl)pyridin-3-yl)acetic acid], for which the EC50 was less than 0.1 µM.
`COCCNCc1nc(C)c([C@H](OC(C)(C)C)C(=O)O)c(N2CCC3(CCC3)CC2)c1-c1ccc(OCCc2ccc(F)cc2)cc1` [Example 42, (S)-2-(tert-Butoxy)-2-(5-(4-(4-fluorophenethoxy)phenyl)-6-(((2-methoxyethyl)amino)methyl)-2-methyl-4-(7-azaspiro[3.5]nonan-7-yl)pyridin-3-yl)acetic acid]: the EC50 was less than 0.1 µM.
Regarding `COCCN(C)Cc1nc(C)c([C@H](OC(C)(C)C)C(=O)O)c(N2CCC3(CCC3)CC2)c1-c1ccc(OCCc2ccc(F)cc2)cc1` [Example 43, (S)-2-(tert-Butoxy)-2-(5-(4-(4-fluorophenethoxy)phenyl)-6-(((2-methoxyethyl)(methyl)amino)methyl)-2-methyl-4-(7-azaspiro[3.5]nonan-7-yl)pyridin-3-yl)acetic acid], the EC50 was less than 0.1 µM.
As to `Cc1nc(CN2CCCC2)c(-c2ccc(OCCc3ccc(F)cc3)cc2)c(N2CCC3(CCC3)CC2)c1[C@H](OC(C)(C)C)C(=O)O` [Example 44, (S)-2-(tert-Butoxy)-2-(5-(4-(4-fluorophenethoxy)phenyl)-2-methyl-6-(pyrrolidin-1-ylmethyl)-4-(7-azaspiro[3.5]nonan-7-yl)pyridin-3-yl)acetic acid], the EC50 was less than 0.1 µM.

The assay is the same for the next values; noted with them: Human immunodeficiency virus 1, MT2, 120 h, read-out: EC50 μM.
Take `Cc1nc(C)c([C@H](OC(C)(C)C)C(=O)O)c(N2CCC3(CCCC3)CC2)c1-c1ccc(OCC(C)(C)c2ccc(F)cc2)cc1` [Example 22, (S)-2-(tert-Butoxy)-2-(5-(4-(2-(4-fluorophenyl)-2-methylpropoxy)phenyl)-2,6-dimethyl-4-(8-azaspiro[4.5]decan-8-yl)pyridin-3-yl)acetic acid]: the EC50 is 0.026 µM.
The same measure, in the same setting: then `Cc1nc(C)c([C@H](OC(C)(C)C)C(=O)O)c(N2CCC3(CCC3)CC2)c1-c1ccc(C(=O)NCc2ccccc2)cc1` [Example 29, (S)-2-(5-(4-(Benzylcarbamoyl)phenyl)-2,6-dimethyl-4-(7-azaspiro[3.5]nonan-7-yl)pyridin-3-yl)-2-(tert-butoxy)acetic acid], with 0.007 µM.
As for `Cc1cc(F)ccc1CN1CCc2cc(-c3c(C)nc(C)c([C@H](OC(C)(C)C)C(=O)O)c3N3CCC4(CCC4)CC3)ccc2C1` [Example 35, (S)-2-(tert-Butoxy)-2-(5-(2-(4-fluoro-2-methylbenzyl)-1,2,3,4-tetrahydroisoquinolin-6-yl)-2,6-dimethyl-4-(7-azaspiro[3.5]nonan-7-yl)pyridin-3-yl)acetic acid], the EC50 is 0.006 µM.
As to `COCCNCc1nc(C)c([C@H](OC(C)(C)C)C(=O)O)c(N2CCC3(CCC3)CC2)c1-c1ccc(OCCc2ccc(F)cc2)cc1` [Example 42, (S)-2-(tert-Butoxy)-2-(5-(4-(4-fluorophenethoxy)phenyl)-6-(((2-methoxyethyl)amino)methyl)-2-methyl-4-(7-azaspiro[3.5]nonan-7-yl)pyridin-3-yl)acetic acid], the EC50 was determined as 0.002 µM.
